Source: patent publication US5554640A, “Use of propanolamine derivatives as selective 5-HT1 antagonists” (Eli Lilly and Company, priority 1995, dated 1996)
Entries after “also recorded” stand apart in the source; their conditions may differ. Like-named read-outs stand apart in the source and are kept apart here.

How the values were obtained:
β-adrenergic receptors = test: Binding of 3H-dihydroalprenolol to β-adrenergic receptors, calf brain cortical membranes; parameters: species or system bovine (calf); details: inhibition of 2 nM 3H-dihydroalprenolol binding, 20° C, 20 minutes, pH 7.4, read-out: Beta IC50
Method: The compounds of this invention were evaluated in the following tests systems. Procedure for radioligand receptor assays--Male Sprague-Dawley rats weighing 110-150 g were decapitated and brains were immediately removed. Bovine brains were quickly removed from calf in the slaughterhouse. Cerebral cortices were dissected out at 4° C. and homogenized in 0.32M sucrose. After centrifugation at 1000×g for 10 minutes and then 17,000×g for 20 minutes, a crude synaptosomal fraction was sedimented. The pellet was suspended in 100 volumes of 50 mM tris-HCl buffered at pH 7.4, incubated at 37° C. for 10 minutes, and centrifuged at 50,000×g for 10 minutes. The process was repeated and the final pellet was suspended in ice-chilled 50 mM tris-HCl buffered at pH 7.4. […] Cortical membranes (500 μg protein) of calf brain were incubated at 20° C. for 20 minutes in 2 ml of medium containing […] tris-HCl buffered at pH 7.4; 2 nM 3H-dihydroalprenolol; and various concentrations of test compound. Binding was terminated by filtering samples through glass fiber (GFC) filters. […] Other conditions were as described for 3[…] binding.

[1] = target: T1, serotonin-1A receptor (5-HT1A) (Rattus norvegicus, UniProt P19327); test: biochemical; format: binding, rat (Sprague-Dawley); details: for Ratio Beta IC50 / 5-HT1A IC50: selectivity for 5-HT1A over beta receptor, Beta IC50 from 3H-dihydroalprenolol binding
T1 sequence (P19327 1-422): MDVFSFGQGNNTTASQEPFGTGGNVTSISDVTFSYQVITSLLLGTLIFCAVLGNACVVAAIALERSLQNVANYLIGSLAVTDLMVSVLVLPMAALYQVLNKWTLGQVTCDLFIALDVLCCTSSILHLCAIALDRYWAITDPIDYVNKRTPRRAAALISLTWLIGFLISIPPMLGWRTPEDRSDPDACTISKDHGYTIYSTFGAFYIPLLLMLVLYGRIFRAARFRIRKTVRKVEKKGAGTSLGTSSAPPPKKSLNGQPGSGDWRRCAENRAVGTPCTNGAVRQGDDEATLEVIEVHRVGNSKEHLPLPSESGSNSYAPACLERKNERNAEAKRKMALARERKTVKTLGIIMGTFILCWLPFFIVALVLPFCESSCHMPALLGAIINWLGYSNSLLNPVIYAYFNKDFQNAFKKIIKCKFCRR
Method: The compounds of this invention were evaluated in the following tests systems.
Procedure for radioligand receptor assays--Male Sprague-Dawley rats weighing 110-150 g were decapitated and brains were immediately removed. Bovine brains were quickly removed from calf in the slaughterhouse. Cerebral cortices were dissected out at 4° C. and homogenized in 0.32M sucrose. After centrifugation at 1000×g for 10 minutes and then 17,000×g for 20 minutes, a crude synaptosomal fraction was sedimented. The pellet was suspended in 100 volumes of 50 mM tris-HCl buffered at pH 7.4, incubated at 37° C. for 10 minutes, and centrifuged at 50,000×g for 10 minutes. The process was repeated and the final pellet was suspended in ice-chilled 50 mM tris-HCl buffered at pH 7.4.
Binding of ^3 H-8-hydroxy-2- (di-n-propylamino) tetralin(3H-80HDPAT) to serotonin-1A receptor was performed according to the method described by Wong et al., J. Neural Transm. , 71, 207 (1988). Cortical membranes (300 μg protein) isolated from rat brain were incubated at 28 C for 30 minutes in 2 ml of medium containing 50 mM tris-HCl buffered at pH 7.4; 10 μM pargyline; 0.6 mM ascorbic acid; 5 mM calcium chloride; 0.4 nM 3H-8OHDPAT; and various concentrations of test compound. Binding was terminated by filtering samples under reduced pressure through glass fiber (GFB) filters. The filters were washed twice with 5 ml of ice cold buffer and placed in scintillation vials with 10 ml of PCS (Amlersham/Searle) scintillation fluid. Radioactivity was measured with a liquid scintillation spectrometer. Specific binding of 3H-80HDPAT is defined as the difference of radioactivity bound in the absence and in the presence of 10 μM spiperone.

[2] = system: 5-HT1A and 5-HT1B receptors; details: background knowledge; cited from earlier work
[3] = inhibition of 0.4 nM 3H-8OHDPAT binding, rat cortical membranes, 28 C, 30 minutes, pH 7.4

IC50 (β-adrenergic receptors) [nM]	IC50 [1, 3] [nM]	Ratio Beta IC50 / 5-HT1A IC50 [1]	Compound	IC50 [1] [nM]	antagonism of 5-HT1 receptors relative to β-block (in words) [2]
264	> 1000	< 0.26	OC(CN[C@H]1CC[C@H](c2ccccc2)CC1)COc1cccc2ccccc12 (stereo partly drawn) [(E-4-phenylcyclohexyl)]		
442	34.1	13	OC(CN[C@H]1CC[C@@H](c2ccccc2)CC1)COc1cccc2ccccc12 (stereo partly drawn) [(Z-4-phenylcyclohexyl)]		
1270	180	7.1	C#CC(C)NCC(O)COc1cccc2ccccc12 (stereo not drawn) [CH(CH3)CCH]		
98	41	2.4	CCCC(C)(C)NCC(O)COc1cccc2ccccc12 (stereo not drawn) [C(CH3)2 CH2 CH2 CH3]		
138	49	2.8	OC(CNC1CCCC1)COc1cccc2ccccc12 (stereo not drawn) [(cyclopentyl)]		
225	16.8	15.2	CC(C)(C)C(C)(C)NCC(O)COc1cccc2ccccc12 (stereo not drawn) [C(CH3)2 C(CH3)3]		
7	5	1.4	OC(CNC1CCCC1)COc1ccccc1C1CCCC1 (stereo not drawn) [cyclopentyl]		
			CC(C)NCC(O)COc1cccc2[nH]ccc12 (stereo not drawn) [pindolol]		at concentrations far in excess of those shown to block the β-receptor; also recorded: not selective agents for the serotonin receptor due to their β-blocking activities
104	73	1.4	CCC(C)NCC(O)COc1cccc2ccccc12 (stereo not drawn) [CH(CH3)CH2 CH3]		
683	73	9.4	CC(C)CNCC(O)COc1cccc2ccccc12 (stereo not drawn) [CH2 CH(CH3)2]		
185	23.4	7.9	CCCCCNCC(O)COc1cccc2ccccc12 (stereo not drawn) [CH2 CH2 CH2 CH2 CH3]		
1360	88	15.4	C#CC(C)(C)NCC(O)COc1cccc2ccccc12 (stereo not drawn) [C(CH3)2 CCH]		
97.3	77	1.3	CC(C)(C)NCC(O)COc1cccc2ccccc12 (stereo not drawn) [C(CH3)3]		
174	33.4	5.2	CC1CCCCC1NCC(O)COc1cccc2ccccc12 (stereo not drawn) [(2-methylcyclohexyl)]		
124	100	1.24	C=CC(C)(C)NCC(O)COc1cccc2ccccc12 (stereo not drawn) [C(CH3)2 CHCH2]		
1050	53	20	CCC(C)(C)NCC(O)COc1cccc2ccccc12 (stereo not drawn) [C(CH3)2 CH2 CH3]		
398	38	10.5	CC#CC(C)(C)NCC(O)COc1cccc2ccccc12 (stereo not drawn) [C(CH3)2 CCCH3]		
124	36.9	3.4	CCCCNCC(O)COc1cccc2ccccc12 (stereo not drawn) [CH2 CH2 CH2 CH3]		
65	147		COCC(C)NCC(O)COc1cccc2ccccc12 (stereo not drawn) [CH(CH3)CH2 OCH3]		
313	63	4.8	OC(CNCCc1ccccc1)COc1cccc2ccccc12 (stereo not drawn) [CH2 CH2 C6 H5]		
622	15.4	40.4	OC(CNC1CCCCC1)COc1cccc2ccccc12 (stereo not drawn) [(cyclohexyl)]		

Compound	IC50 (β-adrenergic receptors) [nM]	IC50 [1, 3] [nM]	Ratio Beta IC50 / 5-HT1A IC50 [1]	IC50 [1] [nM]	antagonism of 5-HT1 receptors relative to β-block (in words) [2]
O=C(O)C(=O)O.OC(CNC1CCCCCC1)COc1cccc2ccccc12 (stereo not drawn) [(cycloheptyl), 1-(1-Naphthalenoxy) -3-(cycloheptylamino) -2-propanol ethanedioate]	2280		99	23	
O=C(O)C(=O)O.OC(CNC1CCCCCCC1)COc1ccccc1C1CCCC1 (stereo not drawn) [cyclooctyl, 1-(2-Cyclopentylphenoxy) -3-(cyclooctylamino) 2-propanol ethanedioate]	> 1000		> 200	5	
O=C(O)C(=O)O.OC(CNC1CCCCCCC1)COc1cccc2ccccc12 (stereo not drawn) [(cyclooctyl), 1-(1-Naphthalenoxy)-3-(cyclooctylamino) -2-propanol ethanedioate]	1000		22.2	45	
O=C(O)/C=C\C(=O)O.OC(CNC1CCCCC1)COc1cccc2[nH]ccc12 (stereo not drawn) [Cyclohexyl, 1-(4-Indolyloxy)-3-(cyclohexylamino)-2-propanol maleate]	56	10.3	5.4		
CCCC(C)(C)NCC(O)COc1ccccc1C1CCCC1.O=C(O)C(=O)O (stereo not drawn) [CH(CH3)2 CH2 CH2 CH3, 1-(2-Cyclopentylphenoxy)-3-(1,1-dimethylbutylamino) -2-propanol ethanedioate]	16		2.5	6.5	
O=C(O)C(=O)O.OC(CNC1CCCCCC1)COc1ccccc1C1CCCC1 (stereo not drawn) [cycloheptyl, 1-(2-Cyclopentylphenoxy)-3-(cycloheptylamino) 2-propanol ethanedioate]	48		16	3	
